The record followed here is PubChem BioAssay (NCI).

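Following 48 hours of exposure in 96-well plates, responses at five concentrations were used to interpolate endpoints linearly. TGI marks complete inhibition of growth.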

Test systems include OVCAR-4 ovarian; SK-MEL-2 melanoma; SF-295 CNS; IGROV1 ovarian; SNB-19 CNS; SK-MEL-5 melanoma; UO-31 renal; M14 melanoma; CAKI-1 renal; HS 578T breast; ACHN renal; 786-0 renal; HCT-116 colon; OVCAR-5 ovarian; K-562 leukemia; MCF7 breast; LOX IMVI melanoma; HCT-15 colon; SK-MEL-28 melanoma; BT-549 breast.
Common to all, as to experiment: DTP human tumour cell line panel, 48 h

Regarding `COC(=O)c1ccc2c(c1)CC1(C2)Cc2ccccc2C1=O` (configuration not stated), the TGI with OVCAR-4 ovarian was more than 100 µM; in the test on SK-MEL-2 melanoma, 69.8 µM; in the test with SF-295 CNS, more than 100 µM; in the test with IGROV1 ovarian, more than 100 µM; with SNB-19 CNS it was more than 100 µM; in the test with SK-MEL-5 melanoma, 32.6 µM. Further, the total growth inhibition concentration (TGI) in the test with UO-31 renal is more than 100 µM; in the test on M14 melanoma it was 38.6 µM; in the test on CAKI-1 renal it was more than 100 µM; in the test on HS 578T breast, more than 100 µM; in the test with ACHN renal, more than 100 µM; with 786-0 renal it was more than 100 µM. Further, the TGI with HCT-116 colon is 69.4 µM; with OVCAR-5 ovarian it was more than 100 µM; in the test with K-562 leukemia it was more than 100 µM; with MCF7 breast, 52.5 µM; in the test on LOX IMVI melanoma, 57.4 µM; in the test on HCT-15 colon it was more than 100 µM. In the test with SK-MEL-28 melanoma, the TGI came to 38.7 µM.

`O=C1NCN(c2ccccc2)C12CCN(CC1COc3ccccc3O1)CC2` (configuration not stated): the TGI in the test on OVCAR-4 ovarian was more than 100 µM; in the test with SK-MEL-2 melanoma, more than 100 µM; in the test on SF-295 CNS, more than 100 µM; with IGROV1 ovarian it was more than 100 µM; with SNB-19 CNS, 85.3 µM; in the test on SK-MEL-5 melanoma, more than 100 µM. For the same molecule, the TGI is more than 100 µM in the test on UO-31 renal; more than 100 µM with M14 melanoma; more than 100 µM with CAKI-1 renal; 71.8 µM in the test with HS 578T breast; more than 100 µM in the test with ACHN renal; more than 100 µM with 786-0 renal. Moreover, the concentration for total growth inhibition (TGI) with HCT-116 colon, in the test with OVCAR-5 ovarian, in the test with K-562 leukemia, with MCF7 breast, with LOX IMVI melanoma and with HCT-15 colon was more than 100 µM throughout. Further, the TGI with SK-MEL-28 melanoma is more than 100 µM.

For the molecule `O=c1c(Sc2c(SCSc3cnc4ccccc4c3Sc3c[nH]c4ccccc4c3=O)cnc3ccccc23)c[nH]c2ccccc12`, the TGI in the test on OVCAR-4 ovarian, in the test on SF-295 CNS, with IGROV1 ovarian, with SNB-19 CNS, with SK-MEL-5 melanoma and in the test on BT-549 breast was more than 100 µM each time. Further, the TGI in the test on UO-31 renal, in the test on M14 melanoma, with CAKI-1 renal, with HS 578T breast, in the test with ACHN renal and in the test with 786-0 renal was more than 100 µM each time. Also, the TGI in the test on HCT-116 colon, in the test with OVCAR-5 ovarian, with LOX IMVI melanoma, with HCT-15 colon and with SK-MEL-28 melanoma was more than 100 µM each time.

Regarding `O=C(Cn1c2ccc(Br)cc2c2nc3ccccc3nc21)Nc1ccccc1`, the TGI is 99.4 µM in the test on OVCAR-4 ovarian; more than 100 µM with SK-MEL-2 melanoma; more than 100 µM in the test on SF-295 CNS; 56.2 µM with IGROV1 ovarian; more than 100 µM with SNB-19 CNS; more than 100 µM in the test on SK-MEL-5 melanoma. Besides, the TGI with BT-549 breast was more than 100 µM; in the test with UO-31 renal, more than 100 µM; with M14 melanoma it was more than 100 µM; in the test on CAKI-1 renal, 86.9 µM; with HS 578T breast, 76.9 µM; in the test with ACHN renal it was more than 100 µM. The TGI was 28.7 µM in the test with 786-0 renal; 27.6 µM in the test with HCT-116 colon; more than 100 µM in the test on OVCAR-5 ovarian; more than 100 µM with K-562 leukemia; 29.2 µM with LOX IMVI melanoma; 70.5 µM in the test on HCT-15 colon. This molecule displayed a TGI in the test on SK-MEL-28 melanoma of more than 100 µM.

Consider `CCCCCCCCCCCCOCC1(COCCCCCCCCCCCC)COC(c2ccc(N)cc2)OC1`, for which the TGI with OVCAR-4 ovarian, in the test with SK-MEL-2 melanoma, in the test on SF-295 CNS, in the test with IGROV1 ovarian, in the test with SNB-19 CNS and in the test on SK-MEL-5 melanoma was more than 100 µM in each case. Moreover, the TGI in the test with UO-31 renal, in the test on M14 melanoma, in the test with CAKI-1 renal, with HS 578T breast, with ACHN renal and with 786-0 renal was more than 100 µM each time. In addition, the TGI with HCT-116 colon, in the test with OVCAR-5 ovarian, in the test with K-562 leukemia, with MCF7 breast, with LOX IMVI melanoma and in the test on HCT-15 colon was more than 100 µM in each case. This molecule gave a TGI with SK-MEL-28 melanoma of more than 100 µM.

As to `O=[N+]1[C@H](c2ccccc2)[C@H](c2ccccc2)N1[O-]`, the TGI in the test on OVCAR-4 ovarian worked out at 59.2 µM; in the test on SK-MEL-2 melanoma it was 32.8 µM; in the test with SF-295 CNS it was 38.6 µM; in the test with IGROV1 ovarian, 26.8 µM; in the test on SNB-19 CNS it was 35.1 µM; in the test on SK-MEL-5 melanoma, 30.9 µM. For the same molecule, the TGI in the test with UO-31 renal is 28.5 µM; in the test on M14 melanoma, 29.6 µM; with CAKI-1 renal it was 19.7 µM; with HS 578T breast it was more than 100 µM; with ACHN renal, 32.3 µM; in the test with 786-0 renal, 26.8 µM. Also, the TGI is 30.6 µM with HCT-116 colon; 35.8 µM with OVCAR-5 ovarian; more than 100 µM with K-562 leukemia; 30.5 µM in the test with MCF7 breast; 29.2 µM in the test with LOX IMVI melanoma; 24.7 µM with HCT-15 colon. In the test on SK-MEL-28 melanoma, this molecule had a TGI of 30.5 µM.
